Reference: patent US9593149B2, “Amylin and calcitonin receptor agonist” (Novo Nordisk A/S, priority 2014, dated 2017)
Values after ≈ are worked out from the molar mass of the structure shown. Numbered stars: 1 amine (or outer) side, 2 acyl side, 3 side chain; on linkers, the order of the positions; unused ones are H or OH. Side chains are listed from the residue outwards. Peptide text beside a SMILES is read from it. * marks the point of attachment. C20 diacid = O=C(O)CCCCCCCCCCCCCCCCCCC(=O)*; γGlu = O=C(O)[C@H](CCC(=O)[*:2])N[*:1]; C14 diacid = O=C(O)CCCCCCCCCCCCC(=O)*

Legend:
[1] = Assay (IV) determination of solubility; format: physicochemical
Description: Assay (IV)—Determination of Solubility
The mimylin peptide was dissolved in water at ˜500 nmol/ml and mixed 1:1 with a series of buffers (100 mM glycylglycine pH 3.0, 100 mM glycylglycine pH 4.0, 100 mM glycylglycine pH 5.0, 100 mM bistrispropane pH 6.0, 100 mM bistrispropane pH 6.5, 100 mM bistrispropane pH 7.0, 100 mM bistrispropane pH 7.5, 100 mM bistrispropane pH 8.0).

rat calcitonin receptor = target: T1, rat calcitonin receptor (Rattus norvegicus, UniProt P32214); experiment: Assay (VIII) binding to the rat calcitonin receptor; details: membranes; read-out: rCT-R binding IC50
T1 construct: expressed in transfected cells; host or cells: BHK tk'ts 13 (transient, FuGENE 6)
T1 sequence (P32214 25-479 isoform P32214-2 limits assumed): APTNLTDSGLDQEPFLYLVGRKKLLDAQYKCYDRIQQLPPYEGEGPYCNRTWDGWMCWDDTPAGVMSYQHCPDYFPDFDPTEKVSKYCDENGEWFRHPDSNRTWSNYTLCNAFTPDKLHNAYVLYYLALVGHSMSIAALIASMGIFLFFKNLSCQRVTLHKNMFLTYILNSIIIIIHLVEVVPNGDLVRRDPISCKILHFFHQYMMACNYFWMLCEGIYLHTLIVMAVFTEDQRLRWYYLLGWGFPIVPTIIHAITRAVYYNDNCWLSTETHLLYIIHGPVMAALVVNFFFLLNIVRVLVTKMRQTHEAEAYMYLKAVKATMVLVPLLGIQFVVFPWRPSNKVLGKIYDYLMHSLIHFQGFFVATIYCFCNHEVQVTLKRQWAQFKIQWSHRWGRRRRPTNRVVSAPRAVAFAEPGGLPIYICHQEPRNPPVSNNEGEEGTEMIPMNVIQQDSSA
Description: The morning after, the plates were washed three times in HBSS (4° C.), and lyzed in Lysis buffer (0.1 M NaOH), 1% SDS. Scintillation cocktail (MicroScint40®) was added and the plates were shaken at 500 rpm for a short period. The plate was incubated at room temperature in the dark for 1 hour and Read on a TopCounter™ (Packard). The IC50 was calculated using (one site binding competition analysis) GraphPad Prism5 as a measure of receptor affinity. Assay (VIII)—Determination of Binding to the Rat Calcitonin Receptor
The assay was performed as described above (Assay (VII)—Determination of binding to the human calcitonin receptor) with the exception that we used membranes prepared from BHK tk'ts 13 cells that were transiently transfected with the rat calcitonin receptor. The BHK tk'ts 13 cells were transiently transfected with rat calcitonin receptor using FuGENE® 6 (Roche), according to the manufacturer's recommendations. Cells were grown in DMEM with 10% FBS and 1% Pen/Strep.

SMILES	Solubility ([1]; pH 3.0)	Solubility ([1]; pH 4.0)	Solubility ([1]; pH 5.0)	Solubility ([1]; pH 6.0)	Solubility ([1]; pH 6.5)	Solubility ([1]; pH 7.0)	Solubility ([1]; pH 7.5)	Solubility ([1]; pH 8.0)	IC50 (rat calcitonin receptor) [pM]	solubility at 18 h ([1]; pH 5.0) [µM]
CC(=O)N[C@@H](C)C(=O)N[C@@H](CO)C(=O)N[C@@H](CCC(=O)O)C(=O)N[C@@H](CC(C)C)C(=O)N[C@@H](CO)C(=O)N[C@H](C(=O)N[C@@H](C)C(=O)N[C@@H](C)C(=O)N[C@@H](CC(C)C)C(=O)NCC(=O)N[C@@H](CCCNC(=N)N)C(=O)N[C@@H](CC(C)C)C(=O)N[C@@H](CO)C(=O)N[C@@H](C)C(=O)N[C@@H](CCCCNC(=O)CC[C@H](NC(=O)CCCCCCCCCCCCCCCCCCC(=O)O)C(=O)O)C(=O)N[C@@H](CC(C)C)C(=O)N[C@@H](Cc1cnc[nH]1)C(=O)N[C@@H](CCC(=O)O)C(=O)N[C@@H](CC(C)C)C(=O)N[C@@H](C)C(=O)N[C@H](C(=O)N[C@@H](CC(C)C)C(=O)N1CCC[C@H]1C(=O)N[C@@H](CCCNC(=N)N)C(=O)N[C@H](C(=O)N[C@@H](CCC(=O)O)C(=O)N[C@H](C(=O)NCC(=O)N[C@@H](CO)C(=O)NCC(=O)N[C@@H](CO)C(=O)N1CCC[C@H]1C(N)=O)[C@@H](C)O)[C@@H](C)O)[C@@H](C)O)[C@@H](C)O [compound 69, [N-terminal(acetyl), des1, 16K(C20 diacid-gGlu), 30S, 31G]mimylin] (Ac-ASELSTAALGRLSAK([γGlu-C20 diacid])LHELATLPRTETGSGSP-NH2)	≧200 μM	≧200 μM	≧200 μM	≧200 μM	≧200 μM	≧200 μM	≧200 μM	≧200 μM	42	–
CC(C)C[C@H](NC(=O)[C@H](C)NC(=O)[C@H](C)NC(=O)[C@@H](NC(=O)[C@H](CO)NC(=O)[C@H](CC(C)C)NC(=O)[C@H](CCC(=O)O)NC(=O)[C@H](CO)NC(=O)[C@H](C)NC(=O)CC[C@H](NC(=O)CCCCCCCCCCCCCCCCCCC(=O)O)C(=O)O)[C@@H](C)O)C(=O)NCC(=O)N[C@@H](CCCNC(=N)N)C(=O)N[C@@H](CC(C)C)C(=O)N[C@@H](CO)C(=O)N[C@@H](C)C(=O)N[C@@H](CCC(=O)O)C(=O)N[C@@H](CC(C)C)C(=O)N[C@@H](Cc1cnc[nH]1)C(=O)N[C@@H](CCC(=O)O)C(=O)N[C@@H](CC(C)C)C(=O)N[C@@H](C)C(=O)N[C@H](C(=O)N[C@@H](CC(C)C)C(=O)N1CCC[C@H]1C(=O)N[C@@H](CCCNC(=N)N)C(=O)N[C@H](C(=O)N[C@@H](CCC(=O)O)C(=O)N[C@H](C(=O)NCC(=O)N[C@@H](CO)C(=O)NCC(=O)N[C@@H](CO)C(=O)N[C@@H](Cc1cnc[nH]1)C(N)=O)[C@@H](C)O)[C@@H](C)O)[C@@H](C)O [compound 60, [N-terminal(C20 diacid-gGlu), des1, 30S, 31G, 33H]mimylin] ({C20 diacid-γGlu}-ASELSTAALGRLSAELHELATLPRTETGSGSH-NH2)	≧200 μM	≧200 μM	≧200 μM	≧200 μM	≧200 μM	≧200 μM	≧200 μM	≧200 μM	20	–
CC(C)C[C@H](NC(=O)[C@H](C)NC(=O)[C@H](C)NC(=O)[C@@H](NC(=O)[C@H](CO)NC(=O)[C@H](CC(C)C)NC(=O)[C@H](CCC(=O)O)NC(=O)[C@H](CO)NC(=O)[C@H](C)NC(=O)CCCCCCCCCCCCC(=O)O)[C@@H](C)O)C(=O)NCC(=O)N[C@@H](CCCNC(=N)N)C(=O)N[C@@H](CC(C)C)C(=O)N[C@@H](CO)C(=O)N[C@@H](C)C(=O)N[C@@H](CCC(=O)O)C(=O)N[C@@H](CC(C)C)C(=O)N[C@@H](Cc1cnc[nH]1)C(=O)N[C@@H](CCC(=O)O)C(=O)N[C@@H](CC(C)C)C(=O)N[C@@H](C)C(=O)N[C@H](C(=O)N[C@@H](CC(C)C)C(=O)N1CCC[C@H]1C(=O)N[C@@H](CCCNC(=N)N)C(=O)N[C@H](C(=O)N[C@@H](CCC(=O)O)C(=O)N[C@H](C(=O)NCC(=O)N[C@@H](CO)C(=O)NCC(=O)N[C@@H](CO)C(=O)N1CCC[C@H]1C(N)=O)[C@@H](C)O)[C@@H](C)O)[C@@H](C)O [compound 51, [N-terminal(C14 diacid), des1, 30S, 31G]mimylin] ({C14 diacid}-ASELSTAALGRLSAELHELATLPRTETGSGSP-NH2)	≧200 μM	≧200 μM	≧200 μM	≧200 μM	≧200 μM	≧200 μM	≧200 μM	≧200 μM	123	–
CC(C)C[C@H](NC(=O)CNC(=O)[C@H](CO)NC(=O)[C@H](C)NC(=O)COCCOCCNC(=O)COCCOCCNC(=O)CC[C@H](NC(=O)CCCCCCCCCCCCCCCCC(=O)O)C(=O)O)C(=O)N[C@@H](CO)C(=O)N[C@H](C(=O)N[C@@H](C)C(=O)N[C@H](C(=O)N[C@@H](CC(C)C)C(=O)NCC(=O)N[C@@H](CCCNC(=N)N)C(=O)N[C@@H](CC(C)C)C(=O)N[C@@H](CO)C(=O)N[C@@H](CCC(N)=O)C(=O)N[C@@H](CCC(=O)O)C(=O)N[C@@H](CC(C)C)C(=O)N[C@@H](Cc1cnc[nH]1)C(=O)N[C@@H](CCC(=O)O)C(=O)N[C@@H](CC(C)C)C(=O)N[C@@H](CCC(N)=O)C(=O)N[C@H](C(=O)N[C@@H](Cc1ccc(O)cc1)C(=O)N1CCC[C@H]1C(=O)N[C@@H](CCCNC(=N)N)C(=O)N[C@H](C(=O)N[C@@H](CCC(=O)O)C(=O)N[C@H](C(=O)NCC(=O)N[C@@H](CO)C(=O)NCC(=O)N[C@H](C(=O)N[C@@H](Cc1ccc(O)cc1)C(N)=O)[C@@H](C)O)[C@@H](C)O)[C@@H](C)O)[C@@H](C)O)C(C)C)[C@@H](C)O [compound 121, [N-terminal(C18 diacid-gGlu-2xOEG), des1, 4G, 9V, 15Q, 21Q, 23Y, 30S, 31G, 32T, 33Y]mimylin]	≧200 μM	≧200 μM	–	≧200 μM	≧200 μM	≧200 μM	≧200 μM	≧200 μM	32	110 (≈ 455 µg/mL)
CC(C)C[C@H](NC(=O)[C@H](CCCNC(=N)N)NC(=O)CNC(=O)[C@H](CC(C)C)NC(=O)[C@@H](NC(=O)[C@H](C)NC(=O)[C@@H](NC(=O)[C@H](CO)NC(=O)[C@H](CC(C)C)NC(=O)[C@H](CCC(=O)O)NC(=O)[C@H](CO)NC(=O)[C@H](C)NC(=O)CC[C@H](NC(=O)CCCCCCCCCCCCCCCCCCC(=O)O)C(=O)O)[C@@H](C)O)[C@@H](C)O)C(=O)N[C@@H](CO)C(=O)N[C@@H](C)C(=O)N[C@@H](CCC(=O)O)C(=O)N[C@@H](CC(C)C)C(=O)N[C@@H](Cc1cnc[nH]1)C(=O)N[C@@H](CCC(=O)O)C(=O)N[C@@H](CC(C)C)C(=O)N[C@@H](CO)C(=O)N[C@H](C(=O)N[C@@H](Cc1ccc(O)cc1)C(=O)N1CCC[C@H]1C(=O)N[C@@H](CCCNC(=N)N)C(=O)N[C@H](C(=O)N[C@@H](CCC(=O)O)C(=O)N[C@H](C(=O)NCC(=O)N[C@@H](CO)C(=O)NCC(=O)N[C@@H](CO)C(=O)N[C@@H](Cc1ccc(O)cc1)C(N)=O)[C@@H](C)O)[C@@H](C)O)[C@@H](C)O [compound 99, [N-terminal(C20 diacid-gGlu), des1, 9T, 21S, 23Y, 30S, 31G, 33Y]mimylin] ({C20 diacid-γGlu}-ASELSTATLGRLSAELHELSTYPRTETGSGSY-NH2)	≧200 μM	≧200 μM	–	≧200 μM	≧200 μM	≧200 μM	≧200 μM	≧200 μM	69	19 (≈ 72.9 µg/mL)
